From US12568972B2, “Pyridazinol compounds and derivatives, preparation methods, herbicidal compositions and applications thereof” (Qingdao Kingagroot Chemical Compound Co., Ltd., priority 2018, dated 2026)

Assays:
Assay in all cases: Post-emergence test, weed control effect
Format in all cases: in vivo
Conditions in all cases: after 3 weeks
Amaranthus retroflexus = test system: Amaranthus retroflexus
How it was run: (§1)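 Activity is expressed as a level from 0 (no effect) to 10 (plant dead), each step matching a further 10% fresh-weight inhibition, assessed 3 weeks post-treatment. Treatment: spray at 2-3 leaf stage of pot-grown plants, compound in acetone, Tween-80 and water with 80% vegetable oil methyl ester synergist at 1500 g/ha.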

Chenopodiaceae = test system: Chenopodiaceae
How it was run: as §1

Rorippa indica = test system: Rorippa indica
How it was run: as §1

Veronica polita = test system: Veronica polita
How it was run: as §1

Cc1ccc(-c2nnc(C(F)(F)F)cc2O)cn1 [Compound 974]
10: weed control effect (activity level), Amaranthus retroflexus (Amaranthus retroflexus; Dose 3000 g/ha) | weed control effect (activity level), Chenopodiaceae (Chenopodiaceae; Dose 3000 g/ha) | weed control effect (activity level), Rorippa indica (Rorippa indica; Dose 3000 g/ha) | weed control effect (activity level), Veronica polita (Veronica polita; Dose 3000 g/ha)

CCCCCOC(=O)Oc1cc(C(F)(F)F)nnc1-c1ccc(F)c(F)c1 [Compound 1-31]
10: weed control effect, Amaranthus retroflexus (activity level) (Amaranthus retroflexus; Dose 3000 g/ha) | weed control effect, Chenopodiaceae (activity level) (Chenopodiaceae; Dose 3000 g/ha) | weed control effect, Rorippa indica (activity level) (Rorippa indica; Dose 3000 g/ha) | weed control effect, Veronica polita (activity level) (Veronica polita; Dose 3000 g/ha)

O=S(=O)(Oc1cc(C(F)(F)F)nnc1-c1ccc(Cl)cc1)c1cccc(OC(F)F)c1 [Compound 1-139]
10: weed control effect, Amaranthus retroflexus (activity level) (Amaranthus retroflexus; Dose 3000 g/ha) | weed control effect, Chenopodiaceae (activity level) (Chenopodiaceae; Dose 3000 g/ha) | weed control effect, Rorippa indica (activity level) (Rorippa indica; Dose 3000 g/ha) | weed control effect, Veronica polita (activity level) (Veronica polita; Dose 3000 g/ha)

Cc1cnn(C)c1-c1nnc(C(F)(F)F)cc1O [Compound 808]
10: weed control effect (activity level), Amaranthus retroflexus (Amaranthus retroflexus; Dose 3000 g/ha) | weed control effect (activity level), Chenopodiaceae (Chenopodiaceae; Dose 3000 g/ha) | weed control effect (activity level), Rorippa indica (Rorippa indica; Dose 3000 g/ha) | weed control effect (activity level), Veronica polita (Veronica polita; Dose 3000 g/ha)

Oc1cc(C(F)(F)F)nnc1-c1cccc(Br)c1 [Compound 31]
10: weed control effect (activity level), Amaranthus retroflexus (Amaranthus retroflexus; dose 1000 g/ha) | weed control effect (activity level), Chenopodiaceae (Chenopodiaceae; dose 1000 g/ha) | weed control effect (activity level), Rorippa indica (Rorippa indica; dose 1000 g/ha) | weed control effect (activity level), Veronica polita (Veronica polita; dose 1000 g/ha)

CCSc1ncccc1C(=O)Oc1cc(C(F)(F)F)nnc1-c1ccc(F)c(F)c1 [Compound 1-113]
10: weed control effect, Amaranthus retroflexus (activity level) (Amaranthus retroflexus; Dose 3000 g/ha) | weed control effect, Chenopodiaceae (activity level) (Chenopodiaceae; Dose 3000 g/ha) | weed control effect, Rorippa indica (activity level) (Rorippa indica; Dose 3000 g/ha) | weed control effect, Veronica polita (activity level) (Veronica polita; Dose 3000 g/ha)

Cc1ncccc1-c1nnc(C(F)(F)F)cc1O [Compound 973]
10: weed control effect (activity level), Amaranthus retroflexus (Amaranthus retroflexus; Dose 3000 g/ha) | weed control effect (activity level), Chenopodiaceae (Chenopodiaceae; Dose 3000 g/ha) | weed control effect (activity level), Rorippa indica (Rorippa indica; Dose 3000 g/ha) | weed control effect (activity level), Veronica polita (Veronica polita; Dose 3000 g/ha)

CN(C)c1cnn(C)c1-c1nnc(C(F)(F)F)cc1O [Compound 816]
10: weed control effect (activity level), Amaranthus retroflexus (Amaranthus retroflexus; Dose 3000 g/ha) | weed control effect (activity level), Chenopodiaceae (Chenopodiaceae; Dose 3000 g/ha) | weed control effect (activity level), Rorippa indica (Rorippa indica; Dose 3000 g/ha) | weed control effect (activity level), Veronica polita (Veronica polita; Dose 3000 g/ha)

CC(C)CC(=O)Oc1cc(C(F)(F)F)nnc1-c1cccc(C(F)(F)F)c1 [Compound 1-8]
10: weed control effect, Amaranthus retroflexus (activity level) (Amaranthus retroflexus; Dose 3000 g/ha) | weed control effect, Chenopodiaceae (activity level) (Chenopodiaceae; Dose 3000 g/ha) | weed control effect, Rorippa indica (activity level) (Rorippa indica; Dose 3000 g/ha) | weed control effect, Veronica polita (activity level) (Veronica polita; Dose 3000 g/ha)

Oc1cc(C(F)(F)F)nnc1-c1ccc2cc[nH]c2c1 [Compound 588]
10: weed control effect (activity level), Amaranthus retroflexus (Amaranthus retroflexus; Dose 3000 g/ha) | weed control effect (activity level), Chenopodiaceae (Chenopodiaceae; Dose 3000 g/ha) | weed control effect (activity level), Rorippa indica (Rorippa indica; Dose 3000 g/ha) | weed control effect (activity level), Veronica polita (Veronica polita; Dose 3000 g/ha)

Oc1cc(C(F)(F)F)nnc1-c1ccc(F)cc1Cl [Compound 44]
10: weed control effect (activity level), Amaranthus retroflexus (Amaranthus retroflexus; dose 1000 g/ha) | weed control effect (activity level), Chenopodiaceae (Chenopodiaceae; dose 1000 g/ha) | weed control effect (activity level), Rorippa indica (Rorippa indica; dose 1000 g/ha) | weed control effect (activity level), Veronica polita (Veronica polita; dose 1000 g/ha)

Cc1cc(C)c(S(=O)(=O)Oc2cc(C(F)(F)F)nnc2-c2ccccc2)c(C)c1 [Compound 1-131]
10: weed control effect, Amaranthus retroflexus (activity level) (Amaranthus retroflexus; Dose 3000 g/ha) | weed control effect, Chenopodiaceae (activity level) (Chenopodiaceae; Dose 3000 g/ha) | weed control effect, Rorippa indica (activity level) (Rorippa indica; Dose 3000 g/ha) | weed control effect, Veronica polita (activity level) (Veronica polita; Dose 3000 g/ha)

O=C(Oc1cc(C(F)(F)F)nnc1-c1ccc(F)c(F)c1)c1ccc2[nH]ccc2c1 [Compound 1-115]
10: weed control effect, Amaranthus retroflexus (activity level) (Amaranthus retroflexus; Dose 3000 g/ha) | weed control effect, Chenopodiaceae (activity level) (Chenopodiaceae; Dose 3000 g/ha) | weed control effect, Rorippa indica (activity level) (Rorippa indica; Dose 3000 g/ha) | weed control effect, Veronica polita (activity level) (Veronica polita; Dose 3000 g/ha)

CCn1nc(C2CC2)cc1-c1nnc(C(F)(F)F)cc1O [Compound 827]
10: weed control effect (activity level), Amaranthus retroflexus (Amaranthus retroflexus; Dose 3000 g/ha) | weed control effect (activity level), Chenopodiaceae (Chenopodiaceae; Dose 3000 g/ha) | weed control effect (activity level), Rorippa indica (Rorippa indica; Dose 3000 g/ha) | weed control effect (activity level), Veronica polita (Veronica polita; Dose 3000 g/ha)

CC(=O)Oc1cc(C(F)(F)F)nnc1-c1ccc(F)cc1 [Compound 1-2]
10: weed control effect, Amaranthus retroflexus (activity level) (Amaranthus retroflexus; Dose 3000 g/ha) | weed control effect, Chenopodiaceae (activity level) (Chenopodiaceae; Dose 3000 g/ha) | weed control effect, Rorippa indica (activity level) (Rorippa indica; Dose 3000 g/ha) | weed control effect, Veronica polita (activity level) (Veronica polita; Dose 3000 g/ha)

O=C(Oc1cc(C(F)(F)F)nnc1-c1ccc(Cl)c(Cl)c1)Sc1ccccc1 [Compound 1-102]
10: weed control effect, Amaranthus retroflexus (activity level) (Amaranthus retroflexus; Dose 3000 g/ha) | weed control effect, Chenopodiaceae (activity level) (Chenopodiaceae; Dose 3000 g/ha) | weed control effect, Rorippa indica (activity level) (Rorippa indica; Dose 3000 g/ha) | weed control effect, Veronica polita (activity level) (Veronica polita; Dose 3000 g/ha)

O=C(Oc1cc(C(F)(F)F)nnc1-c1ccc(Cl)cc1)c1cc(Cl)nc(Cl)n1 [Compound 1-111]
10: weed control effect, Amaranthus retroflexus (activity level) (Amaranthus retroflexus; Dose 3000 g/ha) | weed control effect, Chenopodiaceae (activity level) (Chenopodiaceae; Dose 3000 g/ha) | weed control effect, Rorippa indica (activity level) (Rorippa indica; Dose 3000 g/ha) | weed control effect, Veronica polita (activity level) (Veronica polita; Dose 3000 g/ha)

Oc1cc(C(F)(F)F)nnc1-c1ccc2cnccc2c1 [Compound 634]
10: weed control effect (activity level), Amaranthus retroflexus (Amaranthus retroflexus; Dose 3000 g/ha) | weed control effect (activity level), Chenopodiaceae (Chenopodiaceae; Dose 3000 g/ha) | weed control effect (activity level), Rorippa indica (Rorippa indica; Dose 3000 g/ha) | weed control effect (activity level), Veronica polita (Veronica polita; Dose 3000 g/ha)
